Measured values taken from patent publication US12226380B2, “Method of regulating immunity in the intestines” (Monell Chemical Senses Center, priority 2016, dated 2025).

What was measured:
[1] = tested on: N. brasiliensis or Helgomosomoides polygyrus; details: mice with free access to 100 mM succinate, infected with intestinal parasites, up to two weeks post-infection; anticipated
Protocol: For treatment of parasitic infection, mice are provided with free access to a drinking sprout containing 100 mM succinate (or other SucnR1 agonist) or plain water. Mice are then infected with intestinal parasites, such as N. brasiliensis or Helgomosomoides polygyrus. Mice are examined for the presence of worm (worm burden) in the small intestine, caecum, as well as feces for up to two weeks post-infection.
Similarly, the feces is examined for the presence of parasitic eggs.

DSS-induced colitis = details: DSS-treated mice, 100 mM succinate in drinking water vs plain water; anticipated
Protocol: Mice are treated with DSS to induce intestinal damage. Mice are then provided with a drinking sprout containing 100 mM succinate or plain water. Gut tissue is collected and evaluated for the clinical and histological changes.

With `O=C(O)CCC(=O)O` [succinate] the “expelling of helminths (worm burden)” value [1] was “expedited expelling of helminths from the body” and the “clinical outcome (clinical and histological changes of gut tissue)” value (DSS-induced colitis) was “better clinical outcome”.
